Data reported in PMC8410836, “Rational design of hyperstable antibacterial peptides for food preservation” (NPJ Science of Food, 2021).
≈ marks a conversion by molar mass, not a printed value. Like-named read-outs stand apart in the source and are kept apart here. Where a SMILES comes first, the peptide text is derived from it. Bridges are numbered along the chain shown (N, C = ends).

Tests used:
bovine trypsin [1] = molecular target: T1, bovine trypsin (Bos taurus, UniProt P00760); assay: biochemical; details: SEM
T1 sequence (P00760 24-246): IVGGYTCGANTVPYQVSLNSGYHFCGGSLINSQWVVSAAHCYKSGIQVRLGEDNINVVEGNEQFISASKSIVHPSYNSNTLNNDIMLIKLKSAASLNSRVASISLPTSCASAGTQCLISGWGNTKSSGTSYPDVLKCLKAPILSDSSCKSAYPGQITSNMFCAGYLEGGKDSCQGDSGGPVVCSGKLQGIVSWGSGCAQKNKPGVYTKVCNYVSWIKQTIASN
Procedure: (§3) The amidase activity of trypsin and its inhibition was assayed using the chromogenic substrate BAPNA at pH 8.2 in 0.05 M Tris-HCl containing 0.02 M CaCl2 at 37 °C. The assay reaction contained 50 µL of trypsin solution (40–50 μg of trypsin in 1 mM HCl), 50 µL of water, and 125 µL of the substrate. The reaction was carried out at 37 °C for 10 min and stopped by addition of 0.25 mL of 30% acetic acid. […] The trypsin solution was incubated with an aliquot of inhibitor for 10 min at 37 °C and reaction started by the addition of 125 µL substrate and incubated at 37 °C for 10 min. […] The effect of varying substrate concentration (BAPNA) on bovine trypsin in the presence of fixed concentrations of peptides was studied. The inhibition constants (Ki) were evaluated using the double reciprocal and Dixon plot of the data[65],[66]. Data presented are averages and standard error calculated from two biological replicate experiments.

[2] = tested on: Micrococcus luteus ATCC4698
Procedure: (§1) Four Gram-positive bacteria: Listeria monocytogenes ATCC13932, Bacillus cereus ATCC11778, Staphylococcus aureus ATCC12900, and Micrococcus luteus ATCC4698 and three Gram-negative bacteria: Escherichia coli ATCC11775, Pectobacterium carotovorum MCC2112, and Salmonella typhimurium ATCC9844 were used in this study. These strains were stored at −80 °C in 25% (v/v) glycerol.
(§2) Antimicrobial assays against various bacterial cultures were done using the microdilution broth assay according to the Clinical and Laboratory Standards Institute (CLSI)[64] with some modifications. Mueller-Hinton broth was used to dilute the peptide stock and the bacterial inoculum. Inoculum was prepared from the mid-logarithmic phase culture. Each well of the microtiter plates received aliquots of 100 µL of the media containing different concentrations of peptide ranging from 0.3 to 300 µg/mL. The final concentration of bacteria in the wells was 5 × 10^5 Colony Forming Units (CFU) per mL. Ampicillin was used as positive control. For negative control, ultrapure water was used instead of peptides. Microtiter plates were incubated at 37 °C for 5–6 h with continuous shaking at 130 rpm (M. luteus cells were incubated for 7–8 h). The incubation time used for these assays was initially optimized using a 20-h incubation period. […] MIC assays were performed as three independent experiments in triplicates.

[3] = tested on: Staphylococcus aureus ATCC12900
Procedure: as §1, §2

[4] = tested on: Bacillus cereus ATCC11778
Procedure: as §1, §2

[5] = tested on: Listeria monocytogenes ATCC13932
Procedure: as §1, §2

[6] = tested on: Pectobacterium carotovorum MCC2112
Procedure: as §1, §2

[7] = tested on: Escherichia coli ATCC11775
Procedure: as §1, §2

[8] = tested on: Salmonella typhimurium ATCC9844
Procedure: as §1, §2

bovine trypsin [9] = molecular target: T1, bovine trypsin; details: BAPNA substrate, pH 8.2, 0.05 M Tris-HCl, 0.02 M CaCl2, 37 °C; double reciprocal and Dixon plot; mean and standard error of two biological replicates
Procedure: as §3

[10] = microdilution broth (CLSI, modified), Mueller-Hinton broth, 5 × 10^5 CFU/mL, 37 °C, 7–8 h, resazurin colour change, three independent experiments in triplicates
[11] = microdilution broth, MH broth, 5 × 10^5 CFU/mL, 37 °C, 5–6 h, resazurin

Compound | Ki (bovine trypsin [1]) [nM] | MIC (µg/mL) M. luteus [2, 10] | MIC (µg/mL) M. luteus ([2]; ATCC4698) [µg/mL] | MIC Staphylococcus aureus [3, 11] [µg/mL] | MIC Bacillus cereus [4, 11] [µg/mL] | MIC Listeria monocytogenes [5, 11] [µg/mL] | MIC Pectobacterium carotovorum [6, 11] [µg/mL] | MIC Escherichia coli [7, 11] [µg/mL] | MIC Salmonella typhimurium [8, 11] [µg/mL] | further results
CC[C@H](C)[C@H](NC(=O)[C@@H](NC(=O)[C@@H](N)CO)C(C)C)C(=O)NCC(=O)N[C@H]1CSSC[C@@H](C(=O)N[C@@H](Cc2ccccc2)C(=O)N[C@H](C(=O)N[C@@H](CCCCN)C(=O)O)C(C)C)NC(=O)[C@H]([C@@H](C)CC)NC(=O)[C@@H]2CCCN2C(=O)[C@@H]2CCCN2C(=O)[C@H]([C@@H](C)CC)NC(=O)[C@H](CO)NC(=O)[C@H](CCCCN)NC(=O)[C@H]([C@@H](C)O)NC1=O [HSEP1] (H-SVIGCTKSIPPICFVK-OH; disulfide 5-13) | 230 | 75 µg/mL (≈ 44.4 µM) |  |  |  |  |  |  |  | 
CC[C@H](C)[C@H](NC(=O)[C@H](Cc1c[nH]c2ccccc12)NC(=O)[C@H](CO)NC(=O)[C@@H](N)CCCNC(=N)N)C(=O)N[C@@H](Cc1ccccc1)C(=O)N[C@H]1CSSC[C@@H](C(=O)N[C@@H](Cc2ccccc2)C(=O)N[C@H](C(=O)NCC(=O)N[C@@H](Cc2c[nH]c3ccccc23)C(=O)N[C@@H](CCCNC(=N)N)C(=O)O)C(C)C)NC(=O)[C@H]([C@@H](C)CC)NC(=O)[C@@H]2CCCN2C(=O)[C@@H]2CCCN2C(=O)[C@H]([C@@H](C)CC)NC(=O)[C@H](Cc2ccc(O)cc2)NC(=O)[C@H](CCCNC(=N)N)NC(=O)[C@H]([C@@H](C)O)NC1=O [HSEP3d] (H-RSWIFCTRYIPPICFVGWR-OH; disulfide 6-14; N-terminus and C-terminus assumed) | 370 |  | 3.125 (≈ 1.3 µM) |  |  |  |  |  |  | MIC Staphylococcus aureus ([3]; ATCC12900): >150 µg/mL; MIC Bacillus cereus ([4]; ATCC11778): 100 µg/mL (≈ 41.7 µM); MIC Listeria monocytogenes ([5]; ATCC13932): >150 µg/mL; MIC Pectobacterium carotovorum [6]: >150 µg/mL; MIC Escherichia coli ([7]; ATCC11775): >150 µg/mL; MIC Salmonella typhimurium ([8]; ATCC9844): >150 µg/mL
CC[C@H](C)[C@H](NC(=O)[C@@H](NC(=O)[C@@H](N)CO)C(C)C)C(=O)N[C@@H](Cc1ccccc1)C(=O)NCC(=O)N[C@H]1CSSC[C@@H](C(=O)N[C@@H](Cc2ccccc2)C(=O)N[C@H](C(=O)NCC(=O)N[C@@H](Cc2ccccc2)C(=O)N[C@@H](CCCCN)C(=O)O)C(C)C)NC(=O)[C@H]([C@@H](C)CC)NC(=O)[C@@H]2CCCN2C(=O)[C@@H]2CCCN2C(=O)[C@H]([C@@H](C)CC)NC(=O)[C@H](CO)NC(=O)CNC(=O)[C@H]([C@@H](C)O)NC1=O [HSEP2-K8G] (H-SVIFGCTGSIPPICFVGFK-OH; disulfide 6-14) |  |  | 37.5 (≈ 19 µM) |  |  |  |  |  |  | Ki (M) against bovine trypsin (bovine trypsin [9]): failed to show any trypsin inhibition
CC[C@H](C)[C@@H]1NC(=O)[C@@H]2CCCN2C(=O)[C@@H]2CCCN2C(=O)[C@H]([C@@H](C)CC)NC(=O)[C@H](CO)NC(=O)[C@H](CCCCN)NC(=O)[C@H]([C@@H](C)O)NC(=O)[C@@H]2CSSC[C@H](NC1=O)C(=O)N[C@@H](Cc1ccccc1)C(=O)N1CCC[C@H]1C(=O)N[C@@H](CC(=O)O)C(=O)NCC(=O)N[C@@H](CCCNC(=N)N)C(=O)N2 [SFTI-cyclic, reference compound] |  | no detectable inhibitory activity |  |  |  |  |  |  |  | 
CC[C@H](C)[C@H](NC(=O)[C@H](Cc1ccccc1)NC(=O)[C@H](CO)NC(=O)[C@@H](N)CCCNC(=N)N)C(=O)N[C@@H](Cc1ccccc1)C(=O)NCC(=O)N[C@H]1CSSC[C@@H](C(=O)N[C@@H](Cc2ccccc2)C(=O)N[C@H](C(=O)NCC(=O)N[C@@H](Cc2ccccc2)C(=O)N[C@@H](CCCCN)C(=O)O)C(C)C)NC(=O)[C@H]([C@@H](C)CC)NC(=O)[C@@H]2CCCN2C(=O)[C@@H]2CCCN2C(=O)[C@H]([C@@H](C)CC)NC(=O)[C@H](CO)NC(=O)[C@H](CCCCN)NC(=O)[C@H]([C@@H](C)O)NC1=O [HSEP3a] (H-RSFIFGCTKSIPPICFVGFK-OH; disulfide 7-15) | 55 | 12.5 µg/mL (≈ 5.57 µM) |  | >150 | >150 | >150 | >150 | >150 | >150 | 
CC[C@H](C)[C@H](NC(=O)[C@@H](NC(=O)[C@@H](N)CO)C(C)C)C(=O)NCC(=O)N[C@H]1CSSC[C@@H](C(=O)N[C@@H](Cc2ccccc2)C(=O)N[C@H](C(=O)N[C@@H](CCCCN)C(=O)O)C(C)C)NC(=O)[C@@H]2CCCN2C(=O)[C@H](CCCNC(=N)N)NC(=O)[C@@H]2CCCN2C(=O)[C@@H]2CCCN2C(=O)[C@H]([C@@H](C)CC)NC(=O)[C@H](CO)NC(=O)[C@H](CCCCN)NC(=O)[C@H]([C@@H](C)O)NC(=O)[C@H](Cc2c[nH]c3ccccc23)NC1=O [HVBBI, reference compound] (H-SVIGCWTKSIPPRPCFVK-OH; disulfide 5-15) | 370 | 150 µg/mL (≈ 74.4 µM) |  |  |  |  |  |  |  | 
CC[C@H](C)[C@H](NC(=O)[C@@H](NC(=O)[C@H](CO)NC(=O)[C@@H](N)CCCNC(=N)N)C(C)C)C(=O)N[C@@H](Cc1ccccc1)C(=O)NCC(=O)N[C@H]1CSSC[C@@H](C(=O)N[C@@H](Cc2ccccc2)C(=O)N[C@H](C(=O)NCC(=O)N[C@H](C(=O)N[C@@H](CCCNC(=N)N)C(=O)O)[C@@H](C)O)C(C)C)NC(=O)[C@H]([C@@H](C)CC)NC(=O)[C@@H]2CCCN2C(=O)[C@@H]2CCCN2C(=O)[C@H]([C@@H](C)CC)NC(=O)[C@H](CO)NC(=O)[C@H](CCCCN)NC(=O)[C@H]([C@@H](C)O)NC1=O [HSEP3b] (H-RSVIFGCTKSIPPICFVGTR-OH; disulfide 7-15) | 500 | 6.25 µg/mL (≈ 2.87 µM) |  | >150 | 50 (≈ 22.9 µM) | 100 (≈ 45.9 µM) | 50 (≈ 22.9 µM) | >150 | >150 | 
CC[C@H](C)[C@H](NC(=O)[C@@H](NC(=O)[C@@H](N)CO)C(C)C)C(=O)N[C@@H](Cc1ccccc1)C(=O)NCC(=O)N[C@H]1CSSC[C@@H](C(=O)N[C@@H](Cc2ccccc2)C(=O)N[C@H](C(=O)NCC(=O)N[C@@H](Cc2ccccc2)C(=O)O)C(C)C)NC(=O)[C@H]([C@@H](C)CC)NC(=O)[C@@H]2CCCN2C(=O)[C@@H]2CCCN2C(=O)[C@H]([C@@H](C)CC)NC(=O)[C@H](CO)NC(=O)[C@H](CCCCN)NC(=O)[C@H]([C@@H](C)O)NC1=O [HSEP2-∆K19] (H-SVIFGCTKSIPPICFVGF-OH; disulfide 6-14) | 440 | 25 µg/mL (≈ 13.1 µM) |  | >150 | >150 | >150 | >150 | >150 | >150 | 
CC[C@H](C)[C@H](NC(=O)[C@@H](NC(=O)[C@H](CO)NC(=O)[C@@H](N)CCCNC(=N)N)C(C)C)C(=O)N[C@@H](Cc1ccccc1)C(=O)NCC(=O)N[C@H]1CSSC[C@@H](C(=O)N[C@@H](Cc2ccccc2)C(=O)N[C@H](C(=O)NCC(=O)N[C@@H](Cc2ccccc2)C(=O)N[C@@H](CCCCN)C(=O)O)C(C)C)NC(=O)[C@H]([C@@H](C)CC)NC(=O)[C@@H]2CCCN2C(=O)[C@@H]2CCCN2C(=O)[C@H]([C@@H](C)CC)NC(=O)[C@H](CCCCN)NC(=O)[C@H](CO)NC(=O)[C@H](CCCCN)NC(=O)[C@H]([C@@H](C)O)NC1=O [HSEP3c] (H-RSVIFGCTKSKIPPICFVGFK-OH; disulfide 7-16; N-terminus and C-terminus assumed) | 1400 |  | 3.125 (≈ 1.34 µM) |  |  |  |  |  |  | MIC Staphylococcus aureus ([3]; ATCC12900): 150 µg/mL (≈ 64.5 µM); MIC Bacillus cereus ([4]; ATCC11778): 100 µg/mL (≈ 43 µM); MIC Listeria monocytogenes ([5]; ATCC13932): 50 µg/mL (≈ 21.5 µM); MIC Pectobacterium carotovorum [6]: 50 µg/mL (≈ 21.5 µM); MIC Escherichia coli ([7]; ATCC11775): 100 µg/mL (≈ 43 µM); MIC Salmonella typhimurium ([8]; ATCC9844): >150 µg/mL
CC[C@H](C)[C@@H]1NC(=O)[C@@H]2CCCN2C(=O)[C@@H]2CCCN2C(=O)[C@H]([C@@H](C)CC)NC(=O)[C@H](CO)NC(=O)[C@H]([C@@H](C)O)NC(=O)[C@@H](NC(=O)[C@H](C)N)CSSC[C@@H](C(=O)NCC(=O)N[C@@H](CCCCN)C(=O)O)NC1=O [HSEP2-ΔHR-ΔK8] (H-ACTSIPPICGK-OH; disulfide 2-9) |  | >150 µg/mL |  |  |  |  |  |  |  | 
